Here are results for 1 molecule from article PMC12593154, “Overcoming Solubility Challenges: Micronization of Berberine Using the GAS Antisolvent Technique” (ACS Omega, 2025).

The nature of series [1]: Solubility analysis of berberine in organic solvents (excess compound, 24 h agitation, spectrophotometer). Format: physicochemical. The note with it: organic solvent or mixture, thermodynamic from solid. As for the experimental part: The solubility study of the compound in different solvents was carried out. Acetone, ethanol, methanol, 1-propanol, 1-butanol, and dichloromethane were used. An excess compound was added to 100 mL of solvent at 25 and 35 °C. The solution was agitated at 100 rpm for 24 h to achieve solid–liquid equilibrium. It was then left for 2 h without stirring to allow the sedimentation of the insolubilized particles. An aliquot was taken and analyzed with a spectrophotometer.

Series [2] is described as follows: Particle size by scanning electron microscopy (length and width of 200 particles). Type of series: physicochemical. Particulars: SEM, GAS at 35 °C, 80 bar. As for the experimental part:
Berberine was micronized using the antisolvent gas technique based on the studies of Pessoa et al. (2019) and Sakata et al. (2021). First, the solution was prepared at 1 mg/mL with the selected solvents and then added to the cell. The CO2 was introduced into the cell at a flow rate of 10 and 20 mL/min until the pressure reached 80 bar, with an operating temperature of 35 °C. The mixture was held at 80 bar for 10 min for homogenization. The solvent was removed by passing CO2 at constant pressure with open inlet and outlet valves. Once all the solvent had been removed, the reaction cell was depressurized, and the particles were collected.
Morphology and particle size were examined by scanning electron microscopy (JEOL JSM-6390LV.). Length and width measurements of 200 particles were obtained for each sample using Size Meter Software (version 1.1).

The mark [3] stands for this setting: listed as Nonmicronized berberine.

For orientation: solubility means the dissolved amount per volume that the medium holds.

`COc1ccc2cc3[n+](cc2c1OC)CCc1cc2c(cc1-3)OCO2` [Berberine, Berberine chloride]: the solubility at 24 h is 5.4 ± 0.578 µg/mL in series [1] (1-butanol, 25 °C); 3 ± 0.168 µg/mL in series [1] (1-propanol, 25 °C); 4.33 ± 0.082 µg/mL in series [1] (1-propanol, 35 °C); 0.16 ± 0.004 µg/mL in series [1] (acetone, 25 °C); 0.2 ± 0.007 µg/mL in series [1] (acetone, 35 °C); 1.27 ± 0.032 µg/mL in series [1] (dichloromethane, 25 °C). The solubility at 24 h in series [1] (dichloromethane, 35 °C) worked out at 3.47 ± 0.091 µg/mL; in series [1] (ethanol, 25 °C) it was 2.82 ± 0.086 µg/mL; in series [1] (ethanol, 35 °C), 4.57 ± 0.254 µg/mL; in series [1] (methanol, 25 °C), 15.4 ± 1.61 µg/mL; in series [1] (methanol, 35 °C), 35 ± 1.98 µg/mL. The entries for the “particle size, length” value in series [2] (setting [3]) and in series [2] (listed as Raw) were 13.24 μm and 13.24 ± 8.66 μm, respectively. Further, the “particle size, width” value in series [2] (setting [3]) worked out at 6.39 μm; in series [2] (listed as Raw) it was 6.39 ± 5.39 μm.
